Consider 8 compounds from paper PMC5931191, “Reversible stapling of unprotected peptides via chemoselective methionine bis-alkylation/dealkylation” (Chemical Science, 2018).

“Also recorded” adds a separate entry of the source. Where a SMILES comes first, the peptide text is derived from it.

The subject of data set [1] is U2OS cells. Nature of the data set: AMC release (caspase-3) assay in live U2OS cells. Type of data set: cell-based. The conditions noted are these: ABT-737 10 µM 1 h, peptide 5 µM, after incubation for 12 hours, Fig. S9. The method, then:
(§1) experiments were performed in triplicates with consistent results.
(§2) 100μl U2OS cells were cultured in 96 well plate (~5000 cells / well) overnight, then 0.1 μl of ABT-737 stock solution (10 mM, 1 h) was added into half of the wells to induce apoptosis. After that, peptide 16, 17i, 18i, and 19 stock solution (final concentration of 5 µM) were added into the cells. At different time points, the fluorescence of the wells treated […]
(§3) difference in fluorescence yields between ABT-737 treated and untreated cells was plotted as a function of time to represent the caspase-3 activities in live cells.
(§4) U2OS cells were cultured in 24 well plates with imaging dishes (50000 cells/well) and then treated with peptide 17i, 18i and 19 (100µM) in FBS free medium for 4h. Then the medium was removed and the cells were cultured with a fresh medium containing 10mM GSH for 8h, 16h, or 24h. The release efficiency of AMC was monitored using fluorescence microscopy with pseudo-colored in blue as described.
(§5) Table S1. Conversion of peptide 1 to peptide 1a in different solvents at different time intervals.
(§6) Table S2. Peptide sequences and observed masses following HPLC purification. Calculated and Found m/z are presented as [M+H] + / [M/2+H] +/ [M/3+H] +/ [M/4+H] +.
(§7) Peptide Sequence Calculated mass Observed mass
(§8) (1 picture or pasted object on this page, not shown here)

For data set [2], the target named is T1, caspase-3 in U2OS cell lysates (Homo sapiens, UniProt P42574).
T1 construct: endogenous in cells; host or cells: U2OS cells, ABT-737-induced, lysed
T1 sequence (P42574 29-175 limits assumed): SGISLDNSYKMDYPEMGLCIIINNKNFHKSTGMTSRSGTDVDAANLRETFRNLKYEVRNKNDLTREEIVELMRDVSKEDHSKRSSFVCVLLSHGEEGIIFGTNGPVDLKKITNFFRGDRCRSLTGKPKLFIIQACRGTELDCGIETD
T1 sequence (P42574 176-277 limits assumed): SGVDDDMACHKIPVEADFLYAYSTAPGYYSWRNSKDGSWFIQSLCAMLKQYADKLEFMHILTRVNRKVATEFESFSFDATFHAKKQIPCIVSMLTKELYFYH
Nature of the data set: AMC release assay in U2OS cell lysate. Type of data set: biochemical. To be noted: peptide 5 µM, 24 h, Fig. 5D. The procedure: 8. AMC release Assays. […]
(§9) AMC conjugated peptides 16-19 (50 μL, 5μM)
All experiments were performed in triplicates with
blank control) to induce the activity of caspase-3.
(§10) collected by centrifugation.
(§11) Besides, an induced well pretreated with the caspase pan-

Data set [3] deals with T2, Recombinant Human Caspase-3 protein (Homo sapiens, UniProt P42574).
T2 construct: purchased RnD SYSTEMS
T2 sequence (P42574 29-175 limits assumed): T1 sequence (P42574 29-175 limits assumed)
T2 sequence (P42574 176-277 limits assumed): T1 sequence (P42574 176-277 limits assumed)
Nature of the data set: In vitro caspase-3 AMC release assay. Type of data set: biochemical. To be noted: peptide 5 µM, caspase-3 0.4 ng/µL, 1 h, read every 5 min, Ex 340 nm / Em 450 nm, triplicates; Fig. 5C. The procedure: 8. AMC release Assays.
In vitro Caspase-3 assay:
as §9
All experiments were performed in triplicates with […]
blank control) to induce the activity of caspase-3. […]
as §10, §11

For data set [4], the system named is U2OS cells. Nature of the data set: Confocal microscopy of AMC release in U2OS cells. Type of data set: cell-based. The method, then:
as §1, §2, §3, §4, §5, §6, §7, §8

Data set [5] concerns U2OS cells. Nature of the data set: Flow cytometry cellular uptake in U2OS cells. To be noted: FITC-labelled peptides 10 µM, 4 h, 37 °C, FACS, Fig. S4 (legend not available). Type of data set: cell-based. A general note: Flow cytometry measures light scatter and fluorescence of single cells or particles in a stream.
The subject of data set [6] is HeLa cells. Description: Flow cytometry cellular uptake in HeLa cells. It is filed as cell-based.
Data set [7] deals with U2OS cells. Description: LDH release assay.
Protocol: concentration of 10 μM in FBS free medium and incubated with the cells for 4 hours at 37°C. After that, the medium
was removed and the cells were gently washed 2 times with PBS and then fixed with 4% paraformaldehyde (Alfa
Aesar, MA) in PBS for 10 minutes. The cells were again washed 2 times with PBS and stained with 1μg/ml 4', 6-
diamidino-2-phenylindole (DAPI) (Invitrogen, CA) in PBS for 5 minutes. Images of peptide localization in cells were
taken on PerkinElmer confocal microscopy under the same parameters and processed using Volocity software package
LDH release was performed by using Cytotoxicity LDH Assay Kit-WST®. Briefly, ~10000 cells suspension was added
to each well of the 96 well plate and allowed to grow overnight. The cells were then incubated with the fresh medium
containing serial dilution of peptides at 37 °C for 4h. Lysis Buffer was added as positive control at 37 °C for 30min.
After that, 50μL of the incubation medium were taken out to another 96 well plate followed the addition of 50μL Working
Solution and incubated for 30min at room temperature. Then 25μL Stop Solution was added into the wells. The
absorbance at 490 nm was measured by a microplate reader (Perkin Elmer, Envision, 2104 Multilabel Reader). The
LDH release activity was calculated by (LDH% samples-LDH% blank) / (LDH% positive control -LDH% blank).
The nature of data set [8]: Dealkylation of cyclic peptides with 2-mercaptopyridine (regeneration of linear peptide). Type of data set: physicochemical. The conditions noted are these: chemical stability under reductive conditions; 2-mercaptopyridine (10 equiv., 10 mM) in PBS pH 7.4, 37 °C, different time points, HPLC / LC-MS; Fig. 3A, B. The procedure: in linear gradient mixtures.
1. Preparation of alkylated sulfonium peptides[1]
The alkylated reagent (1.2 equiv)
Then the solution was purified by reversed […]
peptide can be gradually regenerated to the linear peptide.
To 100 µL of each solution 1 µL […]
linear gradient from 10% to 70% acetonitrile over 15min. […]
quantified by LC/MS-based peak detection at 254nm.
4. Flow Cytometry Analysis
T47D cells were seeded in
37°C), washed with PBS, and resuspended in PBS. […]
cytometer (Becton Dickinson) and CellQuest Pro (or CFlow plus).

The subject of data set [9] is trypsin. Nature of the data set: In vitro trypsin digestion assay. The conditions noted are these: peptide 1 mM in PBS pH 7.4, 100 µL + 1 µL trypsin (1 mg/mL) (1%), 37 °C, different time intervals, LC/MS peak detection at 254 nm; compared with linear peptide 1; Fig. 3C.
Protocol: LC-MS spectra were carried out on SHIMAZU LC-MS 8030 (ESI-MS) in positive ion mode.
trypsin (1 mg/mL) was added and incubated at 37°C. At different time interval, the solution was mixed with 12%
trichloroacetic acid (H2O/CH3CN: 2:1) to inactivate the trypsin.
the peptide remaining was examined by LC/MS with a grace smart C18 250× 4.6mm column, using a 4% per minute
linear gradient from 10% to 70% acetonitrile over 15min. The amount of starting material left in each sample was

For “cyclo-i-Met-Asp-Nle-Met-Asp-AMC (sidechain bridge or staple) [17i, Met bis-alkylated peptide 17 with linker i]”, the “caspase-3 activity (AMC release) in live cells” value in data set [1] is on record as “higher caspase-3 activity than the linear peptide 16, while lower than 19”. Besides, the “AMC release in cell lysate pretreated with pan caspase inhibitor FMK” value in [2] (U2OS lysate, FMK 100 µM) is recorded as “reduced significantly”. Besides, in data set [2] (lysate of U2OS cells induced with ABT-737 (10 µM, 1 h), without FMK, triplicates), the “time-dependent AMC release in cell lysate” value is reported as “increased gradually during 24 h”. The “AMC release / susceptibility to caspase-3 in vitro” value in [3] is “not a suitable substrate for caspase-3”. Besides, in data set [4] (peptide 50 µM 4 h with 10% fetal bovine serum, GSH 10 mM 16 h, ABT-737 10 µM 1 h, Fig. S7A), the “AMC fluorescence in cells (confocal) in the presence of serum” value is “weaker fluorescence intensity”. Besides, in data set [4] (peptide 100 µM 4 h in FBS free medium, then 10 mM GSH 8, 16 or 24 h, then ABT-737 10 µM 1 h, Fig. 5E, S7B), the “AMC fluorescence in cells (confocal, 405 nm excitation)” value was “lighted gradually”.
In the case of “FITC-βA-(cyclo-c)-MRRRM-NH2 (sidechain bridge or staple) [11c, peptide 11 cyclized using linker c]”, the “cellular uptake efficiency (flow cytometry)” value in [5] is “best uptake”; in [6] (FITC-labelled peptides 10 µM, 4 h, 37 °C, absence of serum, trypsin wash, FACS, Fig. 4C), “best uptake; also recorded: better cellular uptake than the thioether cyclic peptide”. In addition, the “cellular uptake efficiency (flow cytometry) in the presence of serum” value in data set [6] (10% fetal bovine serum, 5, 10, 20 µM, Fig. S5) is on record as “same tendency as in the absence of serum”.
With `CCCC[C@H](NC(=O)[C@H](CC(=O)O)NC(=O)[C@H](CCCNC(=N)N)NC(=O)[C@H](CCCNC(=N)N)NC(=O)[C@H](CCCNC(=N)N)NC(=O)[C@H](CCCNC(=N)N)NC(=O)[C@H](CCCNC(=N)N)NC(=O)[C@H](CCCNC(=N)N)NC(=O)[C@H](CCCNC(=N)N)NC(=O)[C@H](CCCNC(=N)N)NC(=O)[C@H](CCCNC(=N)N)NC(C)=O)C(=O)N[C@@H](CC)C(=O)N[C@@H](CC(=O)O)C(=O)Nc1ccc2c(C)cc(=O)oc2c1` [compound 19] (HELM PEPTIDE1{[ac].R.R.R.R.R.R.R.R.R.D.[Nle].[Abu].D.[Cc1cc(=O)oc2cc(N[*:1])ccc12]}$$$$V2.0), the membrane lysis effect result in [7] (Fig. S7B (confocal, 100 µM) and S8 (LDH release, 4 h, 10% serum)) is reported as “membrane lysis effect”.
For the compound `CCCC[C@H](NC(=O)[C@H](CC(=O)O)NC(=O)[C@H](CCSC)NC(C)=O)C(=O)N[C@@H](CCSC)C(=O)N[C@@H](CC(=O)O)C(=O)Nc1ccc2c(C)cc(=O)oc2c1` [compound 17] (HELM PEPTIDE1{[ac].M.D.[Nle].M.D.[Cc1cc(=O)oc2cc(N[*:1])ccc12]}$$$$V2.0), the “AMC release / susceptibility to caspase-3 in vitro” value in data set [3] is on record as “quick degradation”.
For the compound “Ac-W-(cyclo-d)-MRGDM-NH2 (sidechain bridge or staple) [1d, peptide 1 Met bis-alkylated with linker d]”, the “regeneration of the parental linear peptide 1 (dealkylation)” value in data set [8] is given as “time-dependent regeneration of the parental peptide 1”.
Turning to `CCCC[C@@H]1NC(=O)[C@H](CC(=O)O)NC(=O)[C@@H](NC(C)=O)CSCc2ccc(cc2)-c2ccc(cc2)CSC[C@H](C(=O)N[C@@H](CC(=O)O)C(=O)Nc2ccc3c(C)cc(=O)oc3c2)NC1=O` [18i] (HELM PEPTIDE1{[ac].C.D.[Nle].[dC].D.[Cc1cc(=O)oc2cc(N[*:1])ccc12]}|CHEM1{[c1cc(-c2ccc(C[*:2])cc2)ccc1C[*:1]]}$PEPTIDE1,CHEM1,2:R3-1:R1|PEPTIDE1,CHEM1,5:R3-1:R2$$$V2.0), in data set [7] (160 µM, 4 h, 10% serum, Fig. S8), the “membrane toxicity (LDH release)” value was “negligible membrane toxicity”.
For the compound `CC(=O)N[C@@H](Cc1c[nH]c2ccccc12)C(=O)N[C@H]1CC[S+](C)Cc2ccc(cc2)-c2ccc(cc2)C[S+](C)CC[C@@H](C(N)=O)NC(=O)[C@H](CC(=O)O)NC(=O)CNC(=O)[C@H](CCCNC(=N)N)NC1=O` (stereo partly drawn) [1i], in [9], the “trypsin stability (peptide remaining)” value is “significantly enhanced the trypsin stability”.
For “Ac-W-(cyclo-c)-MRGDM-NH2 (sidechain bridge or staple) [1c, peptide 1 Met bis-alkylated with linker c]”, the “regeneration of the parental linear peptide 1 (dealkylation)” value in data set [8] is “time-dependent regeneration of the parental peptide 1”.
